Source: patent publication US20130345257A1, “COMPOSITION FOR LUPUS NEPHRITIS AND METHODS OF MAKING AND USING THE SAME” (The Regents of the University of California, priority 2012, published 2013)
Entries after “also recorded” stand apart in the source; their conditions may differ.

What was measured:
[1] = tested on: monocyte/macrophages (CD11b^+Ly6C^−Ly6G^−); experiment: Expression of activation/costimulatory molecules on splenic monocyte/macrophages of treated mice; assay type: cell-based, mouse
From the text: Spleens were removed 7 weeks after initiation of laquinimod treatment in PU^lo animals. Splenocytes were stimulated with TLR4 (LPS), 7 (imiquimod), or 9 (ODN) agonists, or PMA plus ionomycin, as described. FACS plots are representative of one experiment showing intracellular production of (A) IL-10 or (B) TNFα by monocyte/macrophages (CD11b+Ly6C−Ly6G−), and (C) IFNγ by CD4^+ T cells from laquinimod- or vehicle-treated mice. Graphs of IL-10, TNFα, and IFNγ production represent mean±SEM of cytokine production (n=6/gp, *p<0.05, **p<0.01, ***p<0.001 using two way ANOVA). […] Graphs depict mean±SD of mean fluorescence intensity (MFI) and are from three independent experiments with similar results. (n=4/gp, *p<0.05, **p<0.01, ***p<0.001 using t test).
(§1) Single-cell suspensions from spleen or kidneys were stained for extracellular markers for 20 min at 4° C. in PBS/1% FBS. Intracellular staining for Foxp3 and cytokines was performed using the Foxp3 Fixation/Permeabilization kit according to the manufacturer's protocol (eBioscience). Cells were acquired on a FACS LSR II (BD) and data was analyzed using Flowjo (Tree Star).

[2] = tested on: monocyte/macrophages (CD11b^+Ly6C^−Ly6G^−) and CD4^+ T cells; experiment: Intracellular cytokines in splenocytes of treated mice after TLR agonist or PMA plus ionomycin stimulation; assay type: cell-based, mouse; settings: vs vehicle
Method: For intracellular cytokines, whole splenocytes were stimulated with a) LPS (1 μg/mL) (Sigma), imiquimod, a toll like receptor 7 (TLR7) agonist, or ODN, a TLR9 agonist (both at 10 μg/mL) in 2% FBS RPMI 1640 for 24 hours in the presence of monensin (BioLegend) for the last 12 hours; or b) phorbol 12-myristate 13-acetate (PMA, 50 ng/ml) plus ionomycin (500 ng/ml) in the presence of monensin for 5 hours. Monensin was used to prevent cytokine secretion and optimize intracellular staining Intracellular expression of cytokines in CD4^+ cells and macrophages (CD11b^+Ly6C^−Ly6G^−) was analyzed by intracellular flow cytometry. Single-cell suspensions from spleen or kidneys were stained for extracellular markers for 20 min at 4° C. in PBS/1% FBS. Intracellular staining for Foxp3 and cytokines was performed using the Foxp3 Fixation/Permeabilization kit according to the manufacturer's protocol (eBioscience). Cells were acquired on a FACS LSR II (BD) and data was analyzed using Flowjo (Tree Star).

[3] = tested on: spleen cell subsets; experiment: Spleen cell subsets of treated BWF1 mice by flow cytometry; assay type: in vivo, mouse; settings: for Frequency of cells ± SEM: CD4+ / Frequency of cells ± SEM: CD8+ / Frequency of cells ± SEM: CD11b^+Ly6C^+Ly6G+ / Frequency of cells ± SEM: CD11b^+Ly6C^+Ly6G− / Frequency of cells ± SEM: CD11b^+MDSC−(Mφ) / Frequency of cells ± SEM: CD11c^+CD11b+(DC) / Frequency of cells ± SEM: CD11c^+CD11b− (DC) / Frequency of cells ± SEM: CD4^+CD25^+Foxp3^+ / Frequency of cells ± SEM: CD19+: spleen, LAQ 25 mg/kg, MMF 100 mg/kg; for Frequency of cells ± SEM: CD4^+CD25^+Foxp3^+ / Frequency of cells ± SEM: CD19+: in % (unit assumed)
[4] = tested on: leukocyte subsets present in kidney; experiment: Leukocyte subsets in kidney of treated BWF1 mice by flow cytometry; assay type: in vivo, mouse; parameters: Frequency of cells ± SEM: CD11c^+CD11b− (DC) / Frequency of cells ± SEM: CD11b^+Ly6C^+Ly6G− / Frequency of cells ± SEM: CD11b^+Ly6C^+Ly6G+ / Frequency of cells ± SEM: CD4+ / Frequency of cells ± SEM: CD8+ / Frequency of cells ± SEM: CD11b^+MDSC−(Mφ) / Frequency of cells ± SEM: CD11c^+CD11b+(DC): unit not given here; settings: for Frequency of cells ± SEM: CD4+ / Frequency of cells ± SEM: CD8+ / Frequency of cells ± SEM: CD11b^+Ly6C^+Ly6G+ / Frequency of cells ± SEM: CD11b^+Ly6C^+Ly6G− / Frequency of cells ± SEM: CD11b^+MDSC−(Mφ) / Frequency of cells ± SEM: CD11c^+CD11b+(DC) / Frequency of cells ± SEM: CD11c^+CD11b− (DC) / Frequency of cells ± SEM: CD19+: kidney, LAQ 25 mg/kg, MMF 100 mg/kg
Method: (§2) Single cell suspensions of splenocytes or kidney cells were prepared using cell strainers (Fisher), followed by red blood cell lysis. Kidney lymphocytes were separated from connective tissue by centrifugation (15 minutes at 400g) in 30% Percoll (GE Healthcare). CD4^+CD25^− cells from spleen and kidney were isolated using the CD4^+CD25^+ regulatory T cell isolation kit according to manufacturer's protocol (Miltenyi). CD11b+ cells were isolated using EasySep mouse CD11b positive selection kit (StemCell Technologies), surface stained for Ly6C and Ly6G prior to sorting myeloid-derived suppressor cells (MDSC) using FACSAria II. Populations were >95% pure by FACS analysis.
as §1

[5] = tested on: spleen cell subsets; experiment: Spleen cell subsets of treated BWF1 mice by flow cytometry; assay type: in vivo, mouse
From the text: Water-gavaged mice constituted the control untreated animals. The spleen cell subsets were identified by the expression of cell surface markers at age 32 weeks as follow: iTregs; nTregs; MΦ: CD11b^−CD103^−; MΦ^2: CD11b^+Ly6C^hiGr-1^−; MΦ^3: CD11b^+Ly6C^intGr-1^−; Gr-1: CD11b ly6C^intGr-1^+; DC: CD11c^+CD103^+; T2: CD19^+CD23^+CD21^+IgM^hi; MZ: CD19^+CD23^−CD21^+IgM^hi. Abbreviations: iTregs=induced T regulatory cells (Tregs). nTregs=natural Tregs. T2=transitional 2 B cells. MZ=marginal zone B cells. MΦ=macrophages. Gr1=granulocytes. Values are mean±SEM. The statistical significance between the groups was determined by analysis of variance (-A-NOVA). ^AP<0.05 versus untreated controls.
as §2, §1

[6] = spleen at age 32 weeks, oral gavage from age 11 weeks, LAQ 25 mg/kg 3 days per week, MMF 100 mg/kg 5 days/week
[7] = Preventive, 25 weeks after treatment
[8] = Therapeutic (PU^lo), 10 wks after initiation of therapy
[9] = spleen at age 32 weeks, oral gavage from age 11 weeks, LAQ 25 mg/kg 3 days per week, MMF 100 mg/kg 5 days/week, in % (unit assumed)

For `CCN(C(=O)c1c(O)c2c(Cl)cccc2n(C)c1=O)c1ccccc1` [LAQ, 5-chloro-N-ethyl-4-hydroxy-1-methyl-2-oxo-N-phenyl-1,2-dihydroquinoline-3-carboxamide], which “Expression of MHC 11, CD86 and CD80 on M/M after in vitro stimulation with LPS” value ([1]; LPS 1 μg/mL) is on record?
The value was “significantly lower”.

What about the “Ex vivo expression of MHC 11, CD86 and CD40 on M/M” value ([1]; vs vehicle-treated animals, listed as laquinimod) of the same compound?
The value was “decreased expression; also recorded: down-regulated”.

And the “IL-10^+ M/M” value ([2]; splenic M/M after TLR agonist stimulation, PU^lo animals, 7 weeks of treatment)?
The value was “Significantly more”.

And the “M/M producing TNF-α” value ([2]; splenic M/M after TLR agonist stimulation, listed as laquinimod)?
The value was “unable to respond; also recorded: significantly fewer”.

What about the “CD4^+ T cells producing IFN-γ” value ([2]; splenocytes, PMA plus ionomycin) of the same compound?
Its value is “significantly fewer”.

What about the “Percent of CD4^+ Tregs (CD4^+CD25^+Foxp3^+) in splenocytes” value ([3]; FIG. 8) of the same compound?
Its value is “increased”.

And the “Numbers of two putative regulatory cells, CD4^+CD25^+Foxp3^+ Treg and CD11b^+Ly6C^intGR-1^+ myeloid MM” value ([3]; LAQ compared to MMF)?
Its value is “increased”.

And the “Percentage of CD8^+ cells in spleen” value ([3]; compared to the control mice, listed as laquinimod)?
The value was “did not”.

And the “Numbers of MM (splenic PBMC)” value ([3]; mouse, in vivo)?
Its value is “significantly reduced”.

What about the “Frequency of cells ± SEM: CD11b^+CD103^− (MΦ^1)” value [3, 6] of the same compound?
The value was 2.63 ± 0.30^A.

And the “Frequency of cells ± SEM: CD11b^+Ly6C^intGr-1^− (MΦ^3)” value [3, 6]?
The value was 18.48 ± 2.31^A.

What about the “Frequency of cells ± SEM: CD19^+CD23^+CD21^+IgM^hi (T2)” value [3, 6] of the same compound?
The value was 51.19 ± 4.32^A.

What about the “Frequency of cells ± SEM: CD4+” value [3, 7] of the same compound?
The value was 20.2 ± 0.5.

What about the “Frequency of cells ± SEM: CD8+” value [3, 7] of the same compound?
The value was 12.3 ± 0.7.

What about the “Frequency of cells ± SEM: CD11b^+Ly6C^+Ly6G+” value [3, 7] of the same compound?
The value was 31.7 ± 3.6.

And the “Frequency of cells ± SEM: CD11b^+Ly6C^+Ly6G−” value [3, 7]?
The value was 37.5 ± 2.1.

What about the “Frequency of cells ± SEM: CD11b^+MDSC−(Mφ)” value [3, 7] of the same compound?
Its value is 25.2 ± 1.7.

What about the “Frequency of cells ± SEM: CD11c^+CD11b+(DC)” value [3, 7] of the same compound?
Its value is 0.7 ± 0.1.

And the “Frequency of cells ± SEM: CD11c^+CD11b− (DC)” value [3, 7]?
The value was 3.8 ± 0.2.

What about the “Frequency of cells ± SEM: CD4^+CD25^+Foxp3^+” value [3, 7] of the same compound?
Its value is 9.4 ± 0.6.

And the “Frequency of cells ± SEM: CD19+” value [3, 7]?
The value was 68.0 ± 3.8.

And the “Frequency of cells ± SEM: CD4+” value [3, 8]?
Its value is 21.3 ± 1.3.

What about the “Frequency of cells ± SEM: CD8+” value [3, 8] of the same compound?
The value was 24.9 ± 2.9.

What about the “Frequency of cells ± SEM: CD11b^+Ly6C^+Ly6G+” value [3, 8] of the same compound?
Its value is 33.2 ± 5.6.

And the “Frequency of cells ± SEM: CD11b^+Ly6C^+Ly6G−” value [3, 8]?
The value was 38.7 ± 1.9.

And the “Frequency of cells ± SEM: CD11b^+MDSC−(Mφ)” value [3, 8]?
Its value is 25.6 ± 3.3.

And the “Frequency of cells ± SEM: CD11c^+CD11b+(DC)” value [3, 8]?
Its value is 1.0 ± 0.2.

And the “Frequency of cells ± SEM: CD11c^+CD11b− (DC)” value [3, 8]?
The value was 4.5 ± 0.4.

And the “Frequency of cells ± SEM: CD4^+CD25^+Foxp3^+” value [3, 8]?
Its value is 2.2 ± 0.1.

And the “Frequency of cells ± SEM: CD19+” value [3, 8]?
The value was 51.1 ± 3.3.

And the “Percentage of CD4^+ T cells in spleen” value ([3]; vs control mice, listed as laquinimod)?
Its value is “did not”.

What about the “Frequency of cells ± SEM: CD4+” value [4, 7] of the same compound?
Its value is 7.0 ± 0.5.

And the “Frequency of cells ± SEM: CD8+” value [4, 7]?
Its value is 4.2 ± 0.2.

What about the “Frequency of cells ± SEM: CD11b^+Ly6C^+Ly6G+” value [4, 7] of the same compound?
The value was 7.9 ± 1.9.

What about the “Frequency of cells ± SEM: CD11b^+Ly6C^+Ly6G−” value [4, 7] of the same compound?
The value was 44.4 ± 1.5.

And the “Frequency of cells ± SEM: CD11b^+MDSC−(Mφ)” value [4, 7]?
Its value is 31.0 ± 1.8.

What about the “Frequency of cells ± SEM: CD11c^+CD11b+(DC)” value [4, 7] of the same compound?
The value was 0.7 ± 0.1.

What about the “Frequency of cells ± SEM: CD11c^+CD11b− (DC)” value [4, 7] of the same compound?
Its value is 3.8 ± 0.2.

And the “Frequency of cells ± SEM: CD19+” value [4, 7]?
The value was 4.0 ± 0.5.

What about the “Frequency of cells ± SEM: CD4+” value [4, 8] of the same compound?
The value was 2.8 ± 0.3.

What about the “Frequency of cells ± SEM: CD8+” value [4, 8] of the same compound?
Its value is 2.7 ± 0.2.

What about the “Frequency of cells ± SEM: CD11b^+Ly6C^+Ly6G+” value [4, 8] of the same compound?
Its value is 13.6 ± 1.2.

And the “Frequency of cells ± SEM: CD11b^+Ly6C^+Ly6G−” value [4, 8]?
The value was 41.2 ± 0.4.

What about the “Frequency of cells ± SEM: CD11b^+MDSC−(Mφ)” value [4, 8] of the same compound?
Its value is 28.4 ± 0.9.

What about the “Frequency of cells ± SEM: CD11c^+CD11b+(DC)” value [4, 8] of the same compound?
The value was 0.7 ± 0.1.

And the “Frequency of cells ± SEM: CD11c^+CD11b− (DC)” value [4, 8]?
Its value is 1.2 ± 0.1.

What about the “Frequency of cells ± SEM: CD19+” value [4, 8] of the same compound?
The value was 2.7 ± 0.2.

And the “Number of MM in the kidneys” value ([4]; mouse, in vivo)?
Its value is “suppresses numbers of monocytes/macrophages”.

And the “Phenotype of MM isolated from kidneys” value ([4]; mouse, in vivo)?
The value was “promoting change from M1 to M2 phenotypes”.

What about the “Number of MM in the kidneys” value ([4]; mouse, in vivo, listed as laquinimod) of the same compound?
Its value is “significantly reduced”.

And the “Percentage of CD8^+ cells in spleen” value ([5]; compared to the control mice)?
The value was “did not; also recorded: not significantly altered”.

And the “Frequency of cells ± SEM: CD11b^+Ly6C^hiGr-1^− (MΦ^2)” value [5, 6]?
The value was 12.15 ± 2.11.

And the “Frequency of cells ± SEM: CD11b^+Ly6C^intGr-1^+ (Gr-1)” value [5, 6]?
The value was 41.50 ± 3.08^A.

And the “Frequency of cells ± SEM: CD 19^+” value [5, 9]?
Its value is 68.02 ± 3.83.

And the “Frequency of cells ± SEM: CD19^+CD23^−CD21^+IgM^hi (MZ)” value [5, 9]?
The value was 11.85 ± 2.15.

And the “Percentage of CD4^+ T cells in spleen” value ([5]; vs control mice)?
Its value is “did not”.
